PubChem BioAssay AID651642 (Sanford-Burnham Center for Chemical Genomics, 2012)

Columns and labels:
[1] = tested on: H9c2; test: cardiomyocyte survival under oxidative or metabolic stress – cell-based, panel, H9c2 and HL-1, H2O2, 2-deoxyglucose, ATP luminescence, SAR follow-up (AID 651642)
[2] = tested on: HL-1; test: as above
[3] = H9c2/HL-1 cardiomyocyte 2-deoxyglucose damage, mean of runs, with 2-deoxyglucose, mean IC50 across panel
[4] = H9c2/HL-1 cardiomyocyte 2-deoxyglucose damage, run 1, with 2-deoxyglucose
[5] = H9c2/HL-1 cardiomyocyte 2-deoxyglucose damage, run 2, with 2-deoxyglucose
[6] = H9c2/HL-1 cardiomyocyte 2-deoxyglucose damage, run 3, with 2-deoxyglucose
[7] = H9c2/HL-1 cardiomyocyte 2-deoxyglucose damage, run 4, with 2-deoxyglucose
[8] = H9c2/HL-1 cardiomyocyte H2O2 oxidative damage, run 1, with H2O2
[9] = H9c2/HL-1 cardiomyocyte H2O2 oxidative damage, run 2, with H2O2
[10] = H9c2/HL-1 cardiomyocyte H2O2 oxidative damage, run 3, with H2O2
[11] = H9c2/HL-1 cardiomyocyte H2O2 oxidative damage, run 4, with H2O2
[12] = H9c2/HL-1 cardiomyocyte H2O2 oxidative damage, mean of runs, with H2O2, mean IC50 across panel

SMILES	IC50 [1, 3] [µM]	IC50 [1, 4] [µM]	IC50 [1, 5] [µM]	IC50 [1, 6] [µM]	IC50 [1, 7] [µM]	IC50 [1, 8] [µM]	IC50 [1, 9] [µM]	IC50 [1, 10] [µM]	IC50 [1, 11] [µM]	IC50 [2, 4] [µM]	IC50 [2, 5] [µM]	IC50 [2, 6] [µM]	IC50 [2, 7] [µM]	IC50 [2, 12] [µM]	IC50 [2, 8] [µM]	IC50 [2, 9] [µM]	IC50 [2, 10] [µM]	IC50 [2, 11] [µM]	IC50 [2, 3] [µM]	IC50 [1, 12] [µM]
CCOC(=O)c1cccc(NC(=O)c2cc(-c3cc(OC)c(OC)c(OC)c3)nc3ccc(F)cc23)c1	> 79	> 79	> 79	> 79	> 79	9	10.7	> 79	3.82	3.32	4.09	> 79	> 79	4.11	2.77	7.9	2.4	3.37		
COc1cc(-c2cc(C(=O)NCC(=O)Nc3ccc(C(C)=O)cc3)c3cc(F)ccc3n2)cc(OC)c1OC	> 79	> 79	> 79	> 79	> 79	1.54	2.4	> 79	> 79	2.6	3.39	> 79	> 79	4.71	3.18	10.4	0.441	4.84		
COc1ccc2c(c1OC)C(=O)N1c3ccccc3C(=O)N(Cc3ccc(C)cc3)C21 (centres undefined)	> 79	> 79	> 79	> 79	> 79	> 79	6.9	> 79	> 79	11.4	23.3	> 79	> 79		> 79	> 79	> 79	> 79		
COc1cc(-c2cc(C(=O)Nc3cccc(C(=O)N(C)C)c3)c3ccccc3n2)cc(OC)c1OC	> 79	> 79	> 79	> 79	> 79	> 79	3.17	3.3	3.78	6.9	7.56	24.5	26.9	9.38	7.37	12.8	7.61	9.78	16.5	
COc1cc(-c2cc(C(=O)Nc3cccc(C(=O)NC4CC4)c3)c3ccccc3n2)cc(OC)c1OC	19.6	19.4	21	18.4	19.8	2	2.73	2.22	3.11	3.71	4.41	7.05	10.4	6.68	4.24	4.83	7.07	10.6	6.39	2.51
CCOC(=O)c1cccc(NC(=O)c2cc(-c3cc(OC)c(OC)c(OC)c3)nc3ccc(Cl)cc23)c1	> 79	> 79	> 79	> 79	> 79	3.38	21.1	> 79	> 79	> 79	> 79	> 79	> 79		> 79	> 79	1.79	4.09	> 79	
COc1ccc2nc(-c3cc(OC)c(OC)c(OC)c3)cc(C(=O)NCC(=O)Nc3cccc(C(C)=O)c3)c2c1	2.63	3.05	3.53	1.89	2.03	0.761	0.868	> 79	0.324	1.27	3.22	3.47	3.64	5.12	4.48	6.94	4.08	5	2.9	
CCOC(=O)c1cccc(NC(=O)c2cc(-c3cc(OC)c(OC)c(OC)c3)nc3c(Cl)cccc23)c1	> 79	> 79	> 79	> 79	> 79	> 79	30.3	> 79	> 79	> 79	> 79	> 79	> 79		> 79	11.1	> 79	> 79	> 79	
COc1cc(-c2cc(C(=O)Nc3cccc(C(C)=O)c3)c3cc(F)ccc3n2)cc(OC)c1OC	> 79	> 79	> 79	> 79	> 79	5.38	7.18	4.58	10.5	> 79	> 79	> 79	> 79	3.68	2.49	3.72	3.31	5.2	> 79	6.9
COc1cc(-c2cc(C(=O)Nc3cccc(C(=O)Nc4ccccc4)c3)c3ccccc3n2)cc(OC)c1OC	4.71	5.69	5.71	3.53	3.93	1.55	1.96	0.724	0.895	0.708	0.802	1.43	1.8		> 79	1.54	1.68	2.15	1.19	1.28
COc1cc(-c2cc(C(=O)Nc3cccc(C#N)c3)c3ccccc3n2)cc(OC)c1OC	> 79	> 79	> 79	> 79	> 79	7.93	8.58	> 79	6.2	5.37	7.28	> 79	> 79		> 79	> 79	6.09	11.1		
CCOC(=O)c1cccc(NC(=O)CNC(=O)c2cc(-c3cc(OC)c(OC)c(OC)c3)nc3c(Cl)cccc23)c1	> 79	> 79	> 79	> 79	> 79	5.52	8.8	> 79	3.36	3.56	5.79	> 79	> 79		> 79	> 79	4.99	15.4		
COc1cc(-c2cc(C(=O)NCC(=O)Nc3ccc(C(C)=O)cc3)c3ccccc3n2)cc(OC)c1OC		> 79	> 79	6.74	8.41	> 79	> 79	1.62	1.71	> 79	> 79	6.28	7.65		> 79	> 79	7.43	9.32		
COc1ccc2c(c1OC)C(=O)N1c3ccccc3C(=O)N(Cc3cccc(F)c3)C21 (centres undefined)	> 79	> 79	> 79	> 79	> 79	1.15	1.56	> 79	> 79	3.49	4.29	9.07	9.32	> 79	> 79	> 79	> 79	> 79	6.54	
COc1ccc2c(c1OC)C(=O)N1c3ccccc3C(=O)N(Cc3ccccc3)C21 (centres undefined)		44.9	49.1	> 79	> 79	3.56	4.07	> 79	> 79	3.57	4.36	13.8	18.9	> 79	> 79	> 79	> 79	> 79	10.2	
COc1cccc(CNC(=O)CNC(=O)c2cc(-c3cc(OC)c(OC)c(OC)c3)nc3ccccc23)c1		38.6	40.8	> 79	> 79	5.74	7.73	4.38	5.17	9.87	10.8	17.7	22.6		> 79	13.1	6.25	7.97	15.2	5.76
COc1ccc2c(c1OC)C(=O)N1c3ccccc3C(=O)N(Cc3ccccc3C)C21 (centres undefined)	16.3	17	18.1	13.8	16.2	1.32	2.6	> 79	> 79	1.65	1.91	3.79	4.71	> 79	> 79	> 79	> 79	> 79	3.01	
COc1cc(-c2cc(C(=O)NCC(=O)O)c3ccccc3n2)cc(OC)c1OC	> 79	> 79	> 79	> 79	> 79	> 79	> 79	> 79	> 79	> 79	> 79	> 79	> 79	> 79	> 79	> 79	> 79	> 79	> 79	
